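Assay format: 96-well plates, 48-hour exposure. GI50 = concentration required for 50% inhibition of growth.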 Active and inactive are the calls of the source. Rule as the data show it: active = GI50 up to about 1.1 µM and inactive = higher.
Tests used:
Test in all cases: NCI-60 cell line screen, 48 h
[1] = test system: UACC-257
[2] = test system: DU-145
[3] = test system: OVCAR-4
[4] = test system: PC-3
[5] = test system: OVCAR-5
[6] = test system: HL-60
[7] = test system: OVCAR-3
[8] = test system: NCI-H460
[9] = test system: 786-0
[10] = test system: A549
[11] = test system: UACC-62
[12] = test system: COLO 205
[13] = test system: MCF7
[14] = test system: SK-OV-3
[15] = test system: MDA-MB-231
[16] = test system: SR
[17] = test system: MDA-MB-435
[18] = test system: OVCAR-8

| SMILES | GI50 [1] | GI50 [2] | GI50 [3] | GI50 [4] | GI50 [5] | GI50 [6] | GI50 [7] | GI50 [8] | GI50 [9] | GI50 [10] | GI50 [11] | GI50 [12] | GI50 [13] | GI50 [14] | GI50 [15] | GI50 [16] | GI50 [17] | GI50 [18] |
| --- | --- | --- | --- | --- | --- | --- | --- | --- | --- | --- | --- | --- | --- | --- | --- | --- | --- | --- |
| CCC1c2[nH]c3ccccc3c2C[C@H]2C(=O)NC(COC(C)(C)C)C(=O)N12 (stereo partly specified) | 25.2 µM (inactive) | 67.6 µM (inactive) | 39.1 µM (inactive) | 28.5 µM (inactive) | 47.3 µM (inactive) | 21.3 µM (inactive) | 32 µM (inactive) | 31.2 µM (inactive) | 61.2 µM (inactive) | 39.3 µM (inactive) | 53.3 µM (inactive) | 19.7 µM (inactive) | 41.8 µM (inactive) | 63 µM (inactive) | 36.9 µM (inactive) | 31.3 µM (inactive) | 37.7 µM (inactive) | 39.4 µM (inactive) |
| CCCCOc1ccc(NC(=N)Nc2ccc(Cl)cc2)cc1 | 0.176 µM (active) | 0.462 µM (active) | 1.84 µM (inactive) | 2.06 µM (inactive) | 1.68 µM (inactive) | 6.49 µM (inactive) | 10.2 µM (inactive) | 3.7 µM (inactive) | 11.1 µM (inactive) | 0.741 µM (active) | 12.3 µM (inactive) | 0.125 µM (active) | 0.135 µM (active) | 10.6 µM (inactive) | 13.2 µM (inactive) | 3.38 µM (inactive) | 11.1 µM (inactive) | 11.2 µM (inactive) |
| O=C(O)/C(Cc1c[nH]nn1)=N\O | > 100 µM (inactive) | > 100 µM (inactive) | > 100 µM (inactive) | > 100 µM (inactive) | > 100 µM (inactive) | > 100 µM (inactive) | > 100 µM (inactive) | > 100 µM (inactive) | > 100 µM (inactive) | > 100 µM (inactive) | > 100 µM (inactive) | > 100 µM (inactive) | > 100 µM (inactive) | > 100 µM (inactive) | > 100 µM (inactive) | > 100 µM (inactive) | > 100 µM (inactive) | > 100 µM (inactive) |
| [N-]=[N+]=CC(=O)COC(=O)c1ccccc1 | > 100 µM (inactive) | > 100 µM (inactive) | > 100 µM (inactive) | > 100 µM (inactive) | > 100 µM (inactive) | > 100 µM (inactive) | > 100 µM (inactive) | > 100 µM (inactive) | > 100 µM (inactive) | 74.1 µM (inactive) | > 100 µM (inactive) | > 100 µM (inactive) | 88.5 µM (inactive) | > 100 µM (inactive) | > 100 µM (inactive) | 74.6 µM (inactive) | > 100 µM (inactive) | > 100 µM (inactive) |
| COc1ccc2c(c1)c(=O)c1c(NCCN(C)C)ccc3c(=O)n(CCN(C)C)c(=O)n2c31 | 0.166 µM (active) | 0.0883 µM (active) | 0.101 µM (active) | 0.0925 µM (active) | 0.254 µM (active) | 0.101 µM (active) | 0.182 µM (active) | < 0.01 µM (active) | < 0.0125 µM (active) | 0.0367 µM (active) | 0.156 µM (active) | 0.0293 µM (active) | 0.0368 µM (active) | 0.55 µM (active) | 0.191 µM (active) | < 0.01 µM (active) | 0.117 µM (active) | 0.0601 µM (active) |
| O=C(c1ccccc1)c1ccc(C(c2c(O)c3ccccc3oc2=O)c2c(O)c3ccccc3oc2=O)cc1 | 22.8 µM (inactive) | 31.2 µM (inactive) | 26.9 µM (inactive) | 27 µM (inactive) | 23.4 µM (inactive) | 34.1 µM (inactive) | 26.2 µM (inactive) | 40.8 µM (inactive) | 21.2 µM (inactive) | 26.9 µM (inactive) | 17.3 µM (inactive) | 31.7 µM (inactive) | 34.5 µM (inactive) | 18.9 µM (inactive) | 26.7 µM (inactive) | 20.1 µM (inactive) | 29.4 µM (inactive) | 27 µM (inactive) |
| COc1ccc2c(c1)C(=O)c1ccccc1C2 | 33.8 µM (inactive) | 17.1 µM (inactive) | 42.7 µM (inactive) | 29.2 µM (inactive) | > 100 µM (inactive) | 16.3 µM (inactive) | 82.2 µM (inactive) | 61.8 µM (inactive) | 73.8 µM (inactive) | 86.7 µM (inactive) | 51.8 µM (inactive) | 54.5 µM (inactive) | 64 µM (inactive) | 33.5 µM (inactive) | 18.9 µM (inactive) | 46.7 µM (inactive) | 41.7 µM (inactive) | > 100 µM (inactive) |

From ChEMBL document CHEMBL1201862, “PubChem BioAssay data set” (2004)
